Active and inactive are the calls of the source. How the calls were made is not given here. Bounds are passed on as bounds.

A short description of assay [1]: cytotoxicity by WST viability readout, late-stage follow-up, cytotoxicity control for NOD2-RIPK2 interaction inhibitor project, cell-based, absorbance (AID 652167). The following applies: WST cytotoxicity, absorbance 620 nm; WST absorbance; at 10 µM; stronger effect = lower value.
The subject of assay [2] is WST cytotoxicity, absorbance 620 nm. Described as above.

As to `O=S(=O)(c1ccccc1)N1CCCCCC1`, the absorbance in assay [1] was 0.969. The IC50 in assay [2] was > 10 µM (inactive).
`Cc1ccc(C(C[N+](=O)[O-])n2nc(C)cc2C)cc1` (configuration not stated): the absorbance in assay [1] was 0.968. Further, the IC50 in assay [2] is > 10 µM (inactive).
On to `Cc1nc([N+](=O)[O-])c(Br)n1Cc1ccccc1`, for which the absorbance in assay [1] came out at 0.991. In assay [2], the IC50 was > 10 µM (inactive).
Regarding `Cc1ncc([N+](=O)[O-])n1Cc1ccc(Cl)c(Cl)c1`, the absorbance in assay [1] came to 1.01. The IC50 in assay [2] was > 10 µM (inactive).
In assay [1], `Cc1nc([N+](=O)[O-])c(Br)n1Cc1ccc(Cl)c(Cl)c1` had an absorbance of 0.974. In addition, the IC50 in assay [2] was > 10 µM (inactive).
In assay [1], `O=[N+]([O-])c1cc(S(=O)(=O)N2CCCCCC2)ccc1F` came in with an absorbance of 0.991. Further, the IC50 in assay [2] was > 10 µM (inactive).
`O=[N+]([O-])c1cccc(S(=O)(=O)N2CCCCCC2)c1` returned an absorbance in assay [1] of 0.999. For the same compound, the IC50 in assay [2] was > 10 µM (inactive).
Regarding `Cc1ccc(S(=O)(=O)N2CCCCCC2)cc1[N+](=O)[O-]`, in assay [1], the absorbance came out at 0.99. Moreover, the IC50 in assay [2] was > 10 µM (inactive).
The corresponding values for `COc1ccc(C(C[N+](=O)[O-])n2nc(C)cc2C)cc1` (configuration not stated) are 0.973 and > 10 µM (inactive).
In assay [1], `O=S(=O)(c1ccc(F)cc1)N1CCCCCC1` yielded an absorbance of 1. Also, the IC50 in assay [2] is > 10 µM (inactive).
For the compound `Cc1cc(S(=O)(=O)N2CCCCCC2)ccc1F`, the absorbance in assay [1] was determined as 1. In assay [2], the IC50 is > 10 µM (inactive).

A word on the IC50: it is the concentration that gives 50% inhibition.

(Values after PubChem BioAssay AID652167 (The Scripps Research Institute Molecular Screening Center, 2013).)
